The source of these data is a melting point compilation (Tetko et al.; mined from patent text by program, amines drawn as free bases though some values may be those of a salt).

What is called melting point is the temperature of the solid-liquid transition.

Each structure is given as a SMILES string.

As for `O=S(=O)(Nc1cccc(Br)c1)c1cc(S(=O)(=O)Nc2cccc(Br)c2)c2ccccc2c1`, the melting point was 183 to 186 °C. In turn, `CN1CCC(c2ccccc2)(C(C)(C)O)CC1` displayed a melting point of 146 to 147 °C. Consider `CCNC(=O)C(C)Oc1ncn(-c2cccc(C(F)(F)F)c2)n1` (stereo not given), for which the melting point lay in the range of 135 to 137 °C. Compound `Nc1ncccc1OCC#CI` had a melting point of 140 °C. In turn, `CCCCOc1ccc(S(=O)(=O)C2(C(=O)NO)CCN(Cc3ccncc3)CC2)cc1` gave a melting point of 118 °C. The compound `COC(=O)[C@@H]1CSC(=S)N1CC(C)(C)S` had a melting point of 126 to 127 °C. For the compound `COc1ccc2cnc(Nc3ccc(N4CCCCC4)c(F)c3)nc2c1C1CCCC1`, the melting point is 200 to 201 °C. In turn, `O=C(O)CCCCCCCCCCCOC(=O)OCC(Cl)(Cl)Cl` had a melting point of 44.6 to 46.4 °C. `CNc1nn2cc(-c3ccccc3)nc2s1` registered a melting point of 177 °C. Compound `Cc1oc(-c2ccccc2)nc1CCOc1ccc(CN(O)C(N)=O)cc1` had a melting point of 148 to 150 °C. Consider `N#Cc1ccc(Nc2nc(Oc3c(F)cccc3F)ccc2[N+](=O)[O-])cc1`, for which the melting point was in the range of 234 to 236 °C. `NCCCc1ccc2c(n1)NCCC2` gave a melting point of 66 to 68.5 °C. The compound `COc1ccc(NC(=O)CN2CCN(c3cccc(C(F)(F)F)c3)CC2)c([N+](=O)[O-])c1` registered a melting point of 98 to 100 °C. As to `Cc1cc2[nH]c(=O)c3cnc(O)cc3n2n1`, the melting point was > 300 °C. With `CNCC1Cc2cc(-c3cccc(F)c3)cc(F)c2O1` (stereo not given) the figure was > 250 °C; with `O=[N+]([O-])c1ccc(NC=C(S(=O)(=O)c2ccccc2)S(=O)(=O)c2ccccc2)nc1`, 229 to 231 °C.

In the case of `CO[C@@H]1[C@@H](OC)[C@H](C)O[C@@H](OC(=S)Nc2ccc(-c3nccn3-c3ccc(OC(F)(F)F)cc3)cc2)[C@@H]1OC`, the melting point worked out at 129 °C. The compound `Cc1ccc([C@@H](Sc2cc(C)ccc2N)[C@H](O)C(N)=O)cc1` came in with a melting point of 145 to 146 °C. Turning to `COC(=O)c1ccc(CN2N=C(C(C)(C)C)CC2=O)cc1`, the melting point was in the range of 161 to 162 °C. As to `O=C1c2ccccc2C(=O)N1Cn1nnn(-c2ccccc2)c1=S`, the melting point lay in the range of 130 to 134 °C.

`COc1cc(-c2ccc(Cl)cc2)cc2oc(=O)c(C)c(C)c12` registered a melting point of 148 °C. Under `COc1cc(N)c(Cl)cc1C(=O)NCC1CCN(CCCCCN2C(=O)c3ccccc3C2=O)CC1` stands 58 to 61 °C; under `CCCCCCCc1cnc(-c2ccc(CCC(=O)OCC(F)(F)C(F)F)cc2)nc1`, 42 °C; under `CCC(C)(C)c1cc(-c2cccc(CC3SC(N4CCOCC4)=NC3=O)c2)ccc1O` (stereo not given), 74 to 77 °C. On to `O=C1c2cccc3cccc(c23)C(=O)N1CCN1CCC(c2c[nH]c3ccc(F)cc23)CC1`, for which the melting point came to 235 °C.

In turn, `CCOC(=O)Cc1ccc(NC(=O)C(COc2cccnc2)NS(=O)(=O)c2ccc(Cl)cc2)cc1` (racemic) had a melting point of 136 to 139 °C. Take `CC(C)(C)c1nc(Cl)n(-c2c(Cl)cc(Cl)cc2Cl)n1`: the melting point was 98 to 98.5 °C. Turning to `Cc1cccnc1Cn1nnc2ccccc21`, the melting point fell in the range of 175 to 177 °C.

The compound `CCOc1cc(=O)n(C)c2ccccc12` registered a melting point of 80 to 82 °C. As for `CCOc1ccc([N+](=O)[O-])cc1OC`, the melting point fell in the range of 88 to 90 °C. As for `c1ccc(CCN2CCN(Cc3nc4ccccc4[nH]3)CC2)cc1`, the melting point was 150 to 152 °C. As to `CCCCc1nc(=O)c2cc(Br)c(F)cc2[nH]1`, the melting point stood at 225 °C. Take `Cc1cccc(-c2[nH]c(C(C)C)nc2-c2ccc(F)c(-c3c[nH]cn3)c2)n1`: the melting point was in the range of 268 to 270 °C.

In turn, `CNS(=O)(=O)c1ccc(C)cc1C(=O)O` gave a melting point of 140 to 141 °C. The compound `CC(=O)Nc1ccc(S(=O)(=O)Nc2ccccc2)cc1` displayed a melting point of 209 to 210 °C. In turn, `CCC1=C(C#N)C(c2ccccc2OC)c2c[nH]nc2N1` (stereo not given) showed a melting point of 230 to 232 °C. With `CCN1C(=O)C(C)(C)C(=O)N(C)c2cc(CN(CCn3ccc4sccc4c3=O)Cc3cccnc3COC)ccc21` the figure was 119 to 122 °C; with `O=C1CCC(c2ccc(CCCCCNC(=O)c3cccnc3)cc2)=NN1`, 133 to 134 °C. On to `CN1CCC(O)(C#N)CC1`, for which the melting point was 130 to 133 °C. With `COC(=O)c1cc2c(s1)[C@@H](N1CCCCC1=O)[C@H](OCc1ccccc1)C(C)(C)O2` (relative stereo) the figure was 144 to 145 °C; with `O=C(NS(=O)(=O)C=Cc1ccccc1)N1CCC(CCCc2ccccc2)CC1`, 125 to 127 °C.

`COC1=C(N=O)C(=O)NC1=Cc1ccccc1` came in with a melting point of 172 °C. With `COc1cc(-c2ccc(C(C)C)cc2)c(C)c2oc(=O)c(C)c(C)c12`, the melting point worked out at 172 °C. Compound `N#Cc1cccc(OCCc2c[nH]cn2)c1` registered a melting point of 189 to 190 °C. `CCOC(=O)C1CCN(S(C)(=O)=O)CC1`: the melting point was 91 to 92 °C. `CCc1nc2c(N)nc(C)c(C)c2n1CCOCCNC(=O)NC(=O)c1ccccc1` registered a melting point of 185 to 187 °C. Compound `O=C(N[C@H]1CC[C@H](CCN2CCN(c3nccc4c3OCC4)CC2)CC1)c1ccc(Cl)cc1Cl` yielded a melting point of 244 °C.

Consider `CC(C)(C)c1ccc2c(c1)C(=O)c1ccc(C(=O)O)cc1S2(=O)=O`, for which the melting point is 259 to 262 °C. `O=c1oc(-c2ccccc2)ns1` displayed a melting point of 64 to 67 °C.

Compound `CC1C(=O)N(c2ccccc2)c2ccccc21` (stereo not given) returned a melting point of 77 to 78 °C. As for `Cc1nc2c(/C=C/c3ccccc3)cccn2c1C`, the melting point was 240 to 255 °C. On to `O=C(O)Cn1sc2ccccc2c1=O`, for which the melting point was in the range of 236 to 238 °C. `C#CCn1c(C)c(C(=O)OCC)sc1=O` gave a melting point of 65 °C. In turn, `Clc1ccc(Cn2cc(C=NNc3nc(-c4ccc(Cl)cc4Cl)cs3)c3ccccc32)c(Cl)c1` gave a melting point of 185 °C. As to `COC(=O)c1cccc(C2CCCS2)c1N` (stereo not given), the melting point lay within 75 to 79 °C. `O=c1cc(-c2ccncn2)nc2n1CCCN2` yielded a melting point of 268 to 272 °C.

On to `OCCCc1cn(-c2ccc(F)cc2)c2ccc(Cl)cc12`, for which the melting point lay within 67 to 69 °C. Compound `COc1cc2ncc(C#N)c(Nc3cccc(C#N)c3)c2cc1OC` showed a melting point of 285 to 288 °C. In the case of `CCOC(=O)c1cnc(Cl)c2c(C)n[nH]c12`, the melting point worked out at 180 °C. In the case of `CC(C)c1cccc(C(C)C)c1NC(=O)CN1CCN(CCSc2nc3ccccc3o2)CC1`, the melting point fell in the range of 161 to 163 °C. `C=CCNC(=O)N1CC(Oc2cccc(Cl)c2)C1` displayed a melting point of 87 to 89 °C. With `CCOC(=O)C(=O)c1ccc(OCCCCC(=O)c2cc(C(C)(C)C)c(O)c(C(C)(C)C)c2)cc1`, the melting point was in the range of 95 to 96 °C. Under `CCOC(=O)N1CCC(NC2(c3ccccc3Cl)C(=O)Nc3ccc(Cl)cc32)CC1` (stereo not given) stands 204 °C; under `Cc1c(O)c(C(C)(C)C)c(Cc2cc(C(C)(C)C)c(O)c(C(C)(C)C)c2)c(C)c1Cc1cc(C(C)(C)C)c(O)c(C(C)(C)C)c1`, 140 °C.

`O=C1Nc2ccc(Cl)cc2C2(c3ccccc3)OCCCN12` (stereo not given) showed a melting point of 202 to 204 °C.
